Measurements as given in patent US20260102383A1, “LPAR1 Inhibitors” (AbbVie Inc., priority 2024, published 2026).
Where two headings read alike, the source gives them in different places. Marks after values point to notes of the source that are not given here.

Assays:
[1] = molecular target: T1, human LPAR1 (Homo sapiens, UniProt Q92633); assay: Arrestin assay (Arrestin Reporter EDG2-bla U2OS), inhibition of LPA-stimulated signal; assay type: cell-based; conditions: TangoEDG2-bla U2OS cells expressing human LPAR1, 0.25 μM LPA
T1 construct: host or cells: TangoEDG2-bla U2OS cells
T1 sequence (Q92633 whole entry): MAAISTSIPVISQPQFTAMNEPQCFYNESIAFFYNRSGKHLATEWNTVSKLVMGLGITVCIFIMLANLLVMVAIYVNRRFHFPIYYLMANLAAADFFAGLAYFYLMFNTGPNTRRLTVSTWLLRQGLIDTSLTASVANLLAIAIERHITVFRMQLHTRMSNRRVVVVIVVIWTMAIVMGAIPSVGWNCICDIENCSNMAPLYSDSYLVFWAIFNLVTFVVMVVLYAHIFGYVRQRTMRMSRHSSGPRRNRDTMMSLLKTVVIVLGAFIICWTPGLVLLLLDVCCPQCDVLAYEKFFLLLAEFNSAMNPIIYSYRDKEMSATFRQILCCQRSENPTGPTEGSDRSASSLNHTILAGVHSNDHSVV
In short: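 IC50 comes from a variable-slope 4-parameter fit of % inhibition, calculated from the beta-lactamase FRET ratio (emission 460/530 nm, excitation 409 nm, 2 h development at RT). Compounds, 10 μM down to 0.00006 μM in 3-fold steps, were given 1 h before 0.25 μM final LPA for 3 h in TangoEDG2-bla U2OS cells.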

[2] = test system: pro-fibrotic and pro-inflammatory genes in bleomycin-induced skin fibrosis; assay: Bleomycin-evoked skin fibrosis model, skin gene expression (TaqMan); assay type: in vivo, C57B6J mice; conditions: for % Inhibition by Concentration vs Bleo (mean ± SEM), Col1a1 gene / % Inhibition by Concentration vs Bleo (mean ± SEM), Col6a3 gene / % Inhibition by Concentration vs Bleo (mean ± SEM), Col8a1 gene / % Inhibition by Concentration vs Bleo (mean ± SEM), Fn1 gene / % Inhibition by Concentration vs Bleo (mean ± SEM), Lpar1 gene / % Inhibition by Concentration vs Bleo (mean ± SEM), Mmp2 gene / % Inhibition by Concentration vs Bleo (mean ± SEM), Serpine1 gene / % Inhibition by Concentration vs Bleo (mean ± SEM), Timp1 gene: skin
Description: (§1) The activity of Compound 15 was measured using a bleomycin-evoked skin fibrosis model.
(§2) For the bleomycin model of skin fibrosis, C57B6J mice were purchased at 9 to 11 weeks of age. Upon arriving, mice were group-housed 10 per cage in individually ventilated cages, with a normal 12:12 hour light: dark cycle. Animals were acclimated to the animal facilities for a period of at least 10 days prior to initiation of bleomycin model studies; mouse ears were tagged for animal identification. At the initiation of bleomycin administration, 93M diet gel was also added to the cages of all mice and available ad libitum for the duration of the experiment. For all animals studied, food and water were available ad libitum.
(§3) The upper back region of the mouse was shaved and two circles (˜1 cm diameter) were drawn onto the skin to identify the location for bleomycin injection. To induce skin fibrosis, mice received subcutaneous injections of bleomycin (10 units/kg) or phosphate-buffered saline (PBS) during Week 1 (D0-D4) and week 2 (D7-D10) at a volume of 100 μL into the two marked injection sites (for a total volume of 200 μL). […] For pharmacological assessment, mice received either vehicle or 1×, 3×, or 10×mg/kg of a dose of Compound 15 orally, twice daily, from Day 10 to 28. On Day 28, animals were humanely euthanized, and plasma and 2 to 8 mm back skin biopsy punches collected. The ALK5 inhibitor, SB-525334 was also included in the study as a positive control. SB-525334 was administered at a dose of 4.5×mg/kg following the same dosing regimen described for Compound 15. All treatments were administered at a volume of 1×mL/kg body weight.
For tissue gene expression measurement, an 8-mm skin biopsy punch was homogenized in 300 μL RLT buffer containing β-mercaptoethanol (1:100) and using a QIAgen TissueLyser II. RNA was then extracted using the RNeasy Fibrous Mini Kit and purified RNA analyzed for gene expression using TaqMan Kits (Thermofisher) with indicated probes (Table B). Expression data for each sample were normalized to the housekeeping gene (Rplp0) and expressed as fold change relative to the sham treated mice.
(§4) Data from gene and protein measurements were analyzed using GraphPad Prism 7 (GraphPad Software, San Diego, CA, USA). Group comparisons were conducted by a one-way ANOVA, followed by Dunnett's multiple comparisons test.
(§5) In the subcutaneous bleomycin-induced skin fibrosis mouse model, Compound 15 was assessed after the skin fibrosis was established during Days 1 through 10. Compound 15 was administered twice daily by oral gavage from Day 10 through Day 28 as described in Table C.

[3] = test system: disease-relevant skin proteins in bleomycin-induced skin fibrosis; assay: Bleomycin-evoked skin fibrosis model, skin protein levels (ELISA, MSD U-plex); assay type: in vivo, C57B6J mice
Description: as §1, §2, §3
For protein measurement, ½ of an 8-mm biopsy punch was homogenized in 500 μL DI water containing extraction buffer and cell extraction enhancer solution, using a Bead Ruptor 24 with CryoCool (OMNI). ELISA assays were performed on the lysates to measure Fibronectin and Procollagen1a1 and a multiplexed MSD U-plex assay was performed to measure MCP-1 and CXCL1. All kits were run according to the manufacturers' instructions. Skin protein levels were normalized to total protein in the lysate and expressed per milligram of total protein.
as §4, §5

[4] = 1x mg/kg PO BID Day 10-28, vs bleomycin/vehicle
[5] = 3x mg/kg PO BID Day 10-28, vs bleomycin/vehicle
[6] = 10x mg/kg PO BID Day 10-28, vs bleomycin/vehicle
[7] = read-out: Arrestin Reporter EDG2-bla U2OS Human Merged IC50
[8] = 4.5x mg/kg PO BID Day 10-28, vs bleomycin/vehicle

CC(C)c1ccnn1C1(C(=O)Nc2ccc(Cl)cc2OC(F)F)CCN(C[C@H](C(=O)O)C2CCOCC2)CC1 (single isomer, unassigned) [Compound 15]
IC50 ([1]; read-out: Arrestin Reporter EDG2-bla U2OS Human IC50): 47.8 nM
key measures of skin inflammation and fibrosis ([2]; mice, 1×, 3×, and 10×mg/kg): significantly reduced
% Inhibition by Concentration vs Bleo (mean ± SEM), Col1a1 gene ([2]; 1x mg/kg PO BID Day 10-28): 58 ± 12 %
% Inhibition by Concentration vs Bleo (mean ± SEM), Col6a3 gene ([2]; 1x mg/kg PO BID Day 10-28): 62 ± 24%
% Inhibition by Concentration vs Bleo (mean ± SEM), Col8a1 gene ([2]; 1x mg/kg PO BID Day 10-28): 16 ± 23%
% Inhibition by Concentration vs Bleo (mean ± SEM), Fn1 gene ([2]; 1x mg/kg PO BID Day 10-28): 31 ± 20%
% Inhibition by Concentration vs Bleo (mean ± SEM), Lpar1 gene ([2]; 1x mg/kg PO BID Day 10-28): 54 ± 24%
% Inhibition by Concentration vs Bleo (mean ± SEM), Mmp2 gene ([2]; 1x mg/kg PO BID Day 10-28): 39 ± 26%
% Inhibition by Concentration vs Bleo (mean ± SEM), Serpine1 gene ([2]; 1x mg/kg PO BID Day 10-28): 28 ± 31%
% Inhibition by Concentration vs Bleo (mean ± SEM), Timp1 gene ([2]; 1x mg/kg PO BID Day 10-28): 34 ± 21%
% Inhibition by Concentration vs Bleo (mean ± SEM), Col1a1 gene ([2]; 3x mg/kg PO BID Day 10-28): 77 ± 8 %
% Inhibition by Concentration vs Bleo (mean ± SEM), Col6a3 gene ([2]; 3x mg/kg PO BID Day 10-28): 108 ± 9 %
% Inhibition by Concentration vs Bleo (mean ± SEM), Col8a1 gene ([2]; 3x mg/kg PO BID Day 10-28): 43 ± 14%
% Inhibition by Concentration vs Bleo (mean ± SEM), Fn1 gene ([2]; 3x mg/kg PO BID Day 10-28): 76 ± 5 %
% Inhibition by Concentration vs Bleo (mean ± SEM), Lpar1 gene ([2]; 3x mg/kg PO BID Day 10-28): 97 ± 9 %
% Inhibition by Concentration vs Bleo (mean ± SEM), Mmp2 gene ([2]; 3x mg/kg PO BID Day 10-28): 81 ± 15 %
% Inhibition by Concentration vs Bleo (mean ± SEM), Serpine1 gene ([2]; 3x mg/kg PO BID Day 10-28): 88 ± 5 %
% Inhibition by Concentration vs Bleo (mean ± SEM), Timp1 gene ([2]; 3x mg/kg PO BID Day 10-28): 81 ± 7 %
% Inhibition by Concentration vs Bleo (mean ± SEM), Col1a1 gene ([2]; 10x mg/kg PO BID Day 10-28): 88 ± 6 %
% Inhibition by Concentration vs Bleo (mean ± SEM), Col6a3 gene ([2]; 10x mg/kg PO BID Day 10-28): 117 ± 8 %
% Inhibition by Concentration vs Bleo (mean ± SEM), Col8a1 gene ([2]; 10x mg/kg PO BID Day 10-28): 55 ± 11 %
% Inhibition by Concentration vs Bleo (mean ± SEM), Fn1 gene ([2]; 10x mg/kg PO BID Day 10-28): 75 ± 4 %
% Inhibition by Concentration vs Bleo (mean ± SEM), Lpar1 gene ([2]; 10x mg/kg PO BID Day 10-28): 95 ± 8 %
% Inhibition by Concentration vs Bleo (mean ± SEM), Mmp2 gene ([2]; 10x mg/kg PO BID Day 10-28): 55 ± 12%
% Inhibition by Concentration vs Bleo (mean ± SEM), Serpine1 gene ([2]; 10x mg/kg PO BID Day 10-28): 75 ± 9 %
% Inhibition by Concentration vs Bleo (mean ± SEM), Timp1 gene ([2]; 10x mg/kg PO BID Day 10-28): 84 ± 5 %
% Inhibition by Drug Treatment, CXCL1 protein [3, 4]: 56** %
% Inhibition by Drug Treatment, Fibronectin protein [3, 4]: 29%
% Inhibition by Drug Treatment, MCP-1 protein [3, 4]: 50** %
% Inhibition by Drug Treatment, Procollagen1a1 protein [3, 4]: 67*** %
% Inhibition by Drug Treatment, CXCL1 protein [3, 5]: 71*** %
% Inhibition by Drug Treatment, Fibronectin protein [3, 5]: 46*** %
% Inhibition by Drug Treatment, MCP-1 protein [3, 5]: 59** %
% Inhibition by Drug Treatment, Procollagen1a1 protein [3, 5]: 74*** %
% Inhibition by Drug Treatment, CXCL1 protein [3, 6]: 76*** %
% Inhibition by Drug Treatment, Fibronectin protein [3, 6]: 46*** %
% Inhibition by Drug Treatment, MCP-1 protein [3, 6]: 73*** %
% Inhibition by Drug Treatment, Procollagen1a1 protein [3, 6]: 77*** %

CC(C)c1ccnn1C1(C(=O)Nc2ccc(Cl)cc2OC(F)F)CCN(C[C@H](CN2CCOCC2)C(=O)O)CC1 [Compound 239, (2R)-2-[[4-[[4-chloro-2-(difluoromethoxy)phenyl]carbamoyl]-4-(5-isopropylpyrazol-1-yl)-1-piperidyl]methyl]-3-morpholino-propanoic acid]
IC50 [1, 7]: 62.3 nM

CC(C)c1c(F)cnn1C1(C(=O)Nc2ccc(Cl)cc2OC(F)F)CCN(CC(C)(C)C(=O)O)CC1 [Compound 240, 3-[4-[[4-chloro-2-(difluoromethoxy)phenyl]carbamoyl]-4-(4-fluoro-5-isopropyl-pyrazol-1-yl)-1-piperidyl]-2,2-dimethyl-propanoic acid]
IC50 [1, 7]: 23.8 nM

Cc1cccc(-c2[nH]c(C(C)(C)C)nc2-c2ccc3nccnc3c2)n1 [SB-525334, reference compound]
% Inhibition by Drug Treatment, CXCL1 protein [3, 8]: 49* %
% Inhibition by Drug Treatment, Fibronectin protein [3, 8]: 82*** %
% Inhibition by Drug Treatment, Procollagen1a1 protein [3, 8]: 69*** %
% Inhibition by Drug Treatment, MCP-1 protein ([3]; PO BID Day 10-28, vs bleomycin/vehicle): 17%

(2S)-3-[4-[[4-chloro-2- (difluoromethoxy)phenyl] carbamoyl]-4-1(65)-6- methyl-5,6-dihydro-4H- cyclopenta[c]pyrazol-1- yl]-1-piperidyl]-2- tetrahydropyran-4-yl- propanoic acid [Compound 174]
IC50 [1, 7]: 50.2 nM
